Among the data in patent publication US20260356817A1, “AMINOPYRIMIDINE AND AMINOTRIAZINE DERIVATIVES AS MYC PROTEIN MODULATORS” (Sanford Burnham Prebys Medical Discovery Institute, priority 2022, published 2026) are IC50 values, retold here.

The term IC50 denotes the concentration at which inhibition is half-maximal.

The assay concerns Myc. In words: Myc inhibition assay: Myc expression per cell by anti-Myc immunofluorescence, high-content imaging. In kind it is cell-based, human (patient-derived medulloblastoma xenograft cells). Conditions: medulloblastoma PDX cells, 4 h. An outline of the steps:
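Cells from Myc-driven medulloblastoma patient-derived orthotopic xenografts, propagated only in NSG mouse cerebellum, were dissociated and plated in serum-free medium. After overnight recovery, compounds were applied for 4 hours; cells were then fixed, stained for Myc and DAPI, and per-cell Myc quantified by high-content imaging to derive IC50.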
On the technique in general: In xenograft studies the graft and the host belong to different species.

Setting [1] is: Table 1, read-out: IC50 (Myc inhibition).
[2] abbreviates: Table 2, read-out: MYC Inhibition IC50.

The structures appear in SMILES notation. Where two headings read alike, the source gives them in different places. A value given as a limit tells only on which side of the number the result lay.

`Oc1ccc(Oc2ccnc(Nc3cccc(F)c3)n2)cn1` [Compound 110, 5-((2-((3-fluorophenyl)amino)pyrimidin-4-yl)oxy)pyridin-2-ol]: the IC50 under setting [1] was in the range of 1 to 10 µM and the half-maximal inhibitory concentration (IC50) under setting [2] lay within 1 to 10 µM.

On to `Cc1ccc(C)n1-c1cccc(Nc2nccc(-c3ccc4[nH]cnc4c3)n2)c1` [Compound 4, 4-(1H-benzo[d]imidazol-5-yl)-N-(3-(2,5-dimethyl-1H-pyrrol-1-yl)phenyl)pyrimidin-2-amine], for which the IC50 is, setting by setting: under setting [1], 1 to 10 µM; under setting [2], 1 to 10 µM. Regarding `COc1cc(-c2ccnc(Sc3ccccc3)n2)ccn1` [Compound 234, 4-(2-methoxypyridin-4-yl)-2-(phenylthio)pyrimidine], the IC50 lay within 0.2 to 1 µM under setting [1] and 0.2 to 1 µM under setting [2].

Consider `Oc1cccc(-c2ccnc(Nc3cccc(C(F)(F)F)c3)n2)c1` [Compound 173, 3-(2-((3-(trifluoromethyl)phenyl)amino)pyrimidin-4-yl)phenol], for which the IC50 runs as follows: under setting [1], 10 to 100 µM; under setting [2], 10 to 100 µM. Regarding `c1cc(Nc2nccc(-c3ccc4[nH]cnc4c3)n2)[nH]n1` [Compound 57, 4-(1H-benzo[d]imidazol-5-yl)-N-(1H-pyrazol-5-yl)pyrimidin-2-amine], the IC50 is 1 to 10 µM under setting [1] and 1 to 10 µM under setting [2]. Regarding `Cc1cccc(Nc2nccc(-c3cnc4nc[nH]c4c3)n2)c1` [Compound 136, 4-(1H-imidazo[4,5-b]pyridin-6-yl)-N-(m-tolyl)pyrimidin-2-amine], the IC50 is, setting by setting: under setting [1], < 0.2 µM; under setting [2], < 0.2 µM.

In the case of `Cc1cc(C)cc(Nc2nccc(-c3ccc4[nH]cnc4c3)n2)c1` [Compound 16, 4-(1H-benzo[d]imidazol-5-yl)-N-(3,5-dimethylphenyl)pyrimidin-2-amine], the IC50 reads like this: under setting [1], < 0.2 µM; under setting [2], < 0.2 µM.

On to `CN(C)C(=O)c1cccc(Nc2nccc(-c3ccc4[nH]cnc4c3)n2)c1` [Compound 18, 3-((4-(1H-benzo[d]imidazol-5-yl)pyrimidin-2-yl)amino)-N,N-dimethylbenzamide], for which the IC50 is, setting by setting: under setting [1], 1 to 10 µM; under setting [2], 1 to 10 µM. `CC(C)S(=O)(=O)c1cccc(Nc2nccc(-c3ccc4[nH]cnc4c3)n2)c1` [Compound 26, 4-(1H-benzo[d]imidazol-5-yl)-N-(3-(isopropylsulfonyl)phenyl)pyrimidin-2-amine]: the IC50 is < 0.2 µM under setting [1] and < 0.2 µM under setting [2]. Regarding `Clc1ccc(Nc2nccc(-c3ccc4[nH]cnc4c3)n2)cc1` [Compound 86, 4-(1H-benzo[d]imidazol-5-yl)-N-(4-chlorophenyl)pyrimidin-2-amine], the IC50 runs as follows: under setting [1], 0.2 to 1 µM; under setting [2], 0.2 to 1 µM. Take `Cc1ccccc1-c1cccc(Nc2nccc(-c3ccc4[nH]cnc4c3)n2)c1` [Compound 33, 4-(1H-benzo[d]imidazol-5-yl)-N-(2′-methyl-[1,1′-biphenyl]-3-yl)pyrimidin-2-amine]: the IC50 by setting is: under setting [1], 0.2 to 1 µM; under setting [2], 0.2 to 1 µM. For the molecule `CC(C)(C)n1cc(Nc2nccc(-c3ccc4nc[nH]c4c3)n2)cn1` [Compound 276, 4-(1H-benzo[d]imidazol-6-yl)-N-(1-(tert-butyl)-1H-pyrazol-4-yl)pyrimidin-2-amine], the IC50 is 0.2 to 1 µM under setting [1] and 0.2 to 1 µM under setting [2].

For `Oc1cc(-c2ccnc(Nc3cccc(C(F)(F)F)n3)n2)ccn1` [Compound 167, 4-(2-((6-(trifluoromethyl)pyridin-2-yl)amino)pyrimidin-4-yl)pyridin-2-ol], the IC50 by setting is: under setting [1], 10 to 100 µM; under setting [2], 10 to 100 µM. Consider `Cc1c(-c2ccnc(Nc3cccc(C(F)(F)F)c3)n2)ccc2[nH]cnc12` [Compound 125, 4-(4-methyl-1H-benzo[d]imidazol-5-yl)-N-(3-(trifluoromethyl)phenyl)pyrimidin-2-amine], for which the IC50 under setting [1] was 1 to 10 µM and the IC50 under setting [2] lay within 1 to 10 µM.

Consider `Oc1cccc(-c2ccnc(Nc3ccccc3)n2)n1` [Compound 226, 6-(2-(phenylamino)pyrimidin-4-yl)pyridin-2-ol], for which the IC50 runs as follows: under setting [1], 10 to 100 µM; under setting [2], 10 to 100 µM. For `Oc1ccnc(-c2ccnc(Nc3ccccc3)n2)c1` [Compound 183, 2-(2-(phenylamino)pyrimidin-4-yl)pyridin-4-ol], the IC50 by setting is: under setting [1], 1 to 10 µM; under setting [2], 1 to 10 µM. Take `COc1ccnc(-c2ccnc(Nc3cccc(F)c3)n2)c1` [Compound 193, N-(3-fluorophenyl)-4-(4-methoxypyridin-2-yl)pyrimidin-2-amine]: the IC50 was in the range of 10 to 100 µM under setting [1] and 10 to 100 µM under setting [2]. With `c1cc(Nc2nccc(-c3ccc4[nH]cnc4c3)n2)cc(-n2cccn2)c1` [Compound 8, N-(3-(1H-pyrazol-1-yl)phenyl)-4-(1H-benzo[d]imidazol-5-yl)pyrimidin-2-amine], the IC50 is, setting by setting: under setting [1], < 0.2 µM; under setting [2], < 0.2 µM. `FC(F)(F)c1cccc(Nc2cc(-c3ccc4nc[nH]c4c3)ccn2)n1` [Compound 281, N-(4-(1H-benzo[d]imidazol-6-yl)pyridin-2-yl)-6-(trifluoromethyl)pyridin-2-amine]: the IC50 was < 0.2 µM under setting [1] and < 0.2 µM under setting [2]. Consider `Oc1cc(-c2ccnc(Nc3ccccc3)n2)ccn1` [Compound 251, 4-(2-(phenylamino)pyrimidin-4-yl)pyridin-2-ol], for which the IC50 reads like this: under setting [1], 1 to 10 µM; under setting [2], 1 to 10 µM. `Nc1cccc(Nc2nccc(-c3ccc4nc[nH]c4c3)n2)c1` [Compound 275, N1-(4-(1H-benzo[d]imidazol-6-yl)pyrimidin-2-yl)benzene-1,3-diamine]: the IC50 is, setting by setting: under setting [1], < 0.2 µM; under setting [2], < 0.2 µM. Turning to `FC(F)(F)Oc1ccccc1Nc1nccc(-c2ccc3[nH]cnc3c2)n1` [Compound 79, 4-(1H-benzo[d]imidazol-5-yl)-N-(2-(trifluoromethoxy)phenyl)pyrimidin-2-amine], the IC50 under setting [1] was in the range of 0.2 to 1 µM and the IC50 under setting [2] lay in the range of 0.2 to 1 µM. Turning to `CC(C)n1cnc2ccc(-c3ccnc(Nc4cccc(F)c4)n3)cc21` [Compound 277A, N-(3-fluorophenyl)-4-(1-isopropyl-1H-benzo[d]imidazol-6-yl)pyrimidin-2-amine], the IC50 under setting [1] was < 0.2 µM. With `c1cc(Nc2nccc(-c3ccc4[nH]cnc4c3)n2)cc(N2CCNCC2)c1` [Compound 92, 4-(1H-benzo[d]imidazol-5-yl)-N-(3-(piperazin-1-yl)phenyl)pyrimidin-2-amine], the IC50 by setting is: under setting [1], 1 to 10 µM; under setting [2], 1 to 10 µM. With `Fc1cccc(Nc2nccc(-c3ccc4[nH]ccc4c3)n2)c1` [Compound 153, N-(3-fluorophenyl)-4-(1H-indol-5-yl)pyrimidin-2-amine], the IC50 was in the range of 1 to 10 µM under setting [1] and 1 to 10 µM under setting [2]. In the case of `Cc1ccc(Nc2nccc(-c3ccc4[nH]cnc4c3)n2)cc1C` [Compound 60, 4-(1H-benzo[d]imidazol-5-yl)-N-(3,4-dimethylphenyl)pyrimidin-2-amine], the IC50 reads like this: under setting [1], 0.2 to 1 µM; under setting [2], 0.2 to 1 µM. In the case of `c1cc(-c2ccc3[nH]cnc3c2)nc(NC2CCCC2)n1` [Compound 88, 4-(1H-benzo[d]imidazol-5-yl)-N-cyclopentylpyrimidin-2-amine], the IC50 under setting [1] was 1 to 10 µM and the IC50 under setting [2] was 1 to 10 µM. For the molecule `Clc1cccc(Nc2nccc(-c3cnc4nc[nH]c4c3)n2)c1` [Compound 141, N-(3-chlorophenyl)-4-(1H-imidazo[4,5-b]pyridin-6-yl)pyrimidin-2-amine], the IC50 is, setting by setting: under setting [1], < 0.2 µM; under setting [2], < 0.2 µM. On to `c1cc(-c2ccc3[nH]cnc3c2)nc(Nc2ccc3cn[nH]c3c2)n1` [Compound 268, N-(4-(1H-benzo[d]imidazol-5-yl)pyrimidin-2-yl)-1H-indazol-6-amine], for which the IC50 is, setting by setting: under setting [1], 0.2 to 1 µM; under setting [2], 0.2 to 1 µM. For the molecule `CN(c1ccccc1)c1ncnc(-c2ccnc(O)c2)n1` [Compound 215, 4-(4-(methyl(phenyl)amino)-1,3,5-triazin-2-yl)pyridin-2-ol], the IC50 reads like this: under setting [1], 10 to 100 µM; under setting [2], 10 to 100 µM. For `COc1cc(-c2ccnc(Cc3ccccc3)n2)ccn1` [Compound 230, 2-Benzyl-4-(2-methoxypyridin-4-yl)pyrimidine], the IC50 under setting [1] lay within 10 to 100 µM and the IC50 under setting [2] was 10 to 100 µM. Turning to `Oc1cc(-c2ccnc(Nc3cncc(F)c3)n2)ccn1` [Compound 145, 4-(2-((5-fluoropyridin-3-yl)amino)pyrimidin-4-yl)pyridin-2-ol], the IC50 by setting is: under setting [1], 1 to 10 µM; under setting [2], 1 to 10 µM. As to `COc1cc(-c2ccnc(Nc3ccncn3)n2)ccn1` [Compound 177, 4-(2-methoxypyridin-4-yl)-N-(pyrimidin-4-yl)pyrimidin-2-amine], the IC50 was 10 to 100 µM under setting [1] and 10 to 100 µM under setting [2].

`O=S(=O)(c1cccc(Nc2nccc(-c3ccc4[nH]cnc4c3)n2)c1)C(F)(F)F` [Compound 260, 4-(1H-benzo[d]imidazol-5-yl)-N-(3-((trifluoromethyl)sulfonyl)phenyl)pyrimidin-2-amine]: the IC50 is, setting by setting: under setting [1], < 0.2 µM; under setting [2], < 0.2 µM.

`OCCOc1cccc(Nc2nccc(-c3ccnc(O)c3)n2)c1` [Compound 128, 4-(2-((3-(2-hydroxyethoxy)phenyl)amino)pyrimidin-4-yl)pyridin-2-ol]: the IC50 by setting is: under setting [1], 1 to 10 µM; under setting [2], 1 to 10 µM. For `Cc1cc(Nc2nccc(-c3ccc4[nH]cnc4c3)n2)ccc1F` [Compound 48, 4-(1H-benzo[d]imidazol-5-yl)-N-(4-fluoro-3-methylphenyl)pyrimidin-2-amine], the 50% inhibitory concentration (IC50) was 0.2 to 1 µM under setting [1] and 0.2 to 1 µM under setting [2]. `O=C(NC1CC1)c1cccc(Nc2nccc(-c3ccc4[nH]cnc4c3)n2)c1` [Compound 9, 3-((4-(1H-benzo[d]imidazol-5-yl)pyrimidin-2-yl)amino)-N-cyclopropylbenzamide]: the IC50 runs as follows: under setting [1], 0.2 to 1 µM; under setting [2], 0.2 to 1 µM.

Regarding `CNC(=O)c1cccc(Nc2nccc(-c3ccc4[nH]cnc4c3)n2)c1` [Compound 42, 3-((4-(1H-benzo[d]imidazol-5-yl)pyrimidin-2-yl)amino)-N-methylbenzamide], the IC50 runs as follows: under setting [1], 0.2 to 1 µM; under setting [2], 0.2 to 1 µM.
